Results as given in paper PMC12799524, “Putative new biomarkers for renal transporter-mediated drug-drug interactions: Characterization as substrates of organic cation transporter 2, multidrug and toxin extrusion protein 1, and other important drug transporters” (Drug Metabolism and Disposition, 2025).
“Also recorded” adds a separate entry of the source.

Experiments:
[1] = molecular target: T1, human OAT3 (Homo sapiens, UniProt Q8TCC7); test: Uptake assay in HEK-OAT3 vs HEK-VC cells; conditions: for In Vitro OAT3 (substrate class): HEK cells
T1 sequence (Q8TCC7 1-542): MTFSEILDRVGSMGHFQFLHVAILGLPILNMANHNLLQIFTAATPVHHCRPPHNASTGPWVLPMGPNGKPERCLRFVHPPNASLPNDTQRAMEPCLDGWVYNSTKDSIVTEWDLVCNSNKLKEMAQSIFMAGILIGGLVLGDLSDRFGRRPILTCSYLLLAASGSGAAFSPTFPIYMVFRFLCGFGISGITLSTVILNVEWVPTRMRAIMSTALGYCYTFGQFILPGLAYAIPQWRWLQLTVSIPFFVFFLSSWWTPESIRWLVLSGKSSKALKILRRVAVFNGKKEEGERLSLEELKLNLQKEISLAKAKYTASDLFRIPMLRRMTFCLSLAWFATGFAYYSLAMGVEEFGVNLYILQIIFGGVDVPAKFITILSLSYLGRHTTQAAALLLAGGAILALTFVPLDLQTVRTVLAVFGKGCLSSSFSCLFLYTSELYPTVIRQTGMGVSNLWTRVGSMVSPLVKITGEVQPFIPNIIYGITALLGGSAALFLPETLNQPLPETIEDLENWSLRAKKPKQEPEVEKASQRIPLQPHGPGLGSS
Experimental: Using both plasmids, stably transfected HEK cells overexpressing human OAT1 or OAT3 were established as described.[24] HEK cell clones with the highest expression of the SLC22A6 or the SLC22A8 mRNA were selected by quantitative reverse-transcription polymerase chain reaction and functionally characterized by standardized uptake assays using PAH (30 μM) or E3S (1 μM) as prototypic substrates for OAT1 (HEK-OAT1) or OAT3 (HEK-OAT3), respectively, as described below.
Uptake assays into HEK cells stably overexpressing transport proteins and their respective VC were performed as previously described with minor modifications.[19] In brief, cells were seeded in poly-D-lysine–coated (0.1 mg/mL) 12-well plates with a density of 7 × 10^5 cells per well. Twenty-four hours after seeding, cells were induced with 10 mM sodium butyrate to enhance protein expression. Transport experiments were performed 48 hours after seeding. Cells were washed once with transport buffer at 37 °C. Afterward, cells were incubated with transport buffer containing (putative) substrates at the desired concentration at 37 °C for 5 minutes. Inhibition of OCT2/MATE1-mediated transport was investigated by adding 50 μM of cimetidine to the above-mentioned transport buffer containing putative substrates. A mixture of unlabeled and [^3H]-labeled substrate was used for control experiments. The buffer for the transport experiments contained 142 mM NaCl, 5 mM KCl, 1 mM K2HPO4, 1.2 mM MgSO4, 1.5 mM CaCl2, 5 mM glucose, and 12.5 mM HEPES. The pH value was set to 7.3, except for HEK-MATE1 cells and their respective VC, in which pH was set to 8.0.
At the end of the incubation period, cells were put on ice, the transport buffer was removed, and cells were rinsed thrice with ice-cold 0.9% NaCl in water. Then, cells were lysed with 700 μL of an ice-cold mixture of MeOH and water (80:20) containing the recovery standards [^2H5]-tryptophan (1 μg/mL) and [^2H3]-N8-acetylspermidine (0.1 μg/mL). Subsequently, lysates were analyzed with liquid chromatography coupled to tandem mass spectrometry (LC-MS).
(§1) Data are presented in percentage of respective controls (which were set to 100%) or in pmol × mg protein^–1 × min^–1 for concentration-dependent transport as mean ± SEM. All results were normalized to the mean protein concentrations of the cell lysates in the respective control experiments.

[2] = molecular target: T2, human OATP1B3 (Homo sapiens, UniProt Q9NPD5); test: Uptake assay in HEK-OATP1B3 vs HEK-VC cells; format: in vitro ADME
T2 construct: expressed in transfected cells; host or cells: HEK293 (HEK-OATP1B3)
T2 sequence (Q9NPD5 1-702): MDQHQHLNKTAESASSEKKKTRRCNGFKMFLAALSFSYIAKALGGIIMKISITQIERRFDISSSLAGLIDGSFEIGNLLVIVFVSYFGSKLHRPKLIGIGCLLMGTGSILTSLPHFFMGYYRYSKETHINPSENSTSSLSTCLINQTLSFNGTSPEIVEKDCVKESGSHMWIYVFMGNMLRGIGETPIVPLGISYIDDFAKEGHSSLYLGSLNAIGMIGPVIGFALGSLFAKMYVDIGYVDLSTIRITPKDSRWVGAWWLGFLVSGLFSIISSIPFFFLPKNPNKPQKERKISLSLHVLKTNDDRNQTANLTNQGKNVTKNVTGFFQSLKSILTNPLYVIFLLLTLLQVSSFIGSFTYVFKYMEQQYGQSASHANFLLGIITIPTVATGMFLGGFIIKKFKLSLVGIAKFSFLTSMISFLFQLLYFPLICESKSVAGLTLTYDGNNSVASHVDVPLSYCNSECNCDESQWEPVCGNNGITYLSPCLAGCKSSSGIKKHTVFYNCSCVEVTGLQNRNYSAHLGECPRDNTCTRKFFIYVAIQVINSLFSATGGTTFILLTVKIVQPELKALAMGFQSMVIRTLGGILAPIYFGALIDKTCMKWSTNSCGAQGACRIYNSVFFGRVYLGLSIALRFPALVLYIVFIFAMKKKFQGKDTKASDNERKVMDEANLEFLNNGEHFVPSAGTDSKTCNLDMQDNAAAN
Experimental: Transport experiments were performed 48 hours after seeding.

[3] = molecular target: T3, MATE1 (Homo sapiens, UniProt Q96FL8); test: Concentration-dependent transport in HEK-MATE1 cells (Km, Vmax); format: in vitro ADME; parameters: expressed in transfected cells; host or cells: HEK293 (HEK-MATE1); conditions: HEK-MATE1 net uptake; for Vmax for MATE1-mediated uptake: 5 min; for Km at 5 min: human, HEK-MATE1 cells, read-out: Km for MATE1-mediated transport
T3 sequence (Q96FL8 1-570): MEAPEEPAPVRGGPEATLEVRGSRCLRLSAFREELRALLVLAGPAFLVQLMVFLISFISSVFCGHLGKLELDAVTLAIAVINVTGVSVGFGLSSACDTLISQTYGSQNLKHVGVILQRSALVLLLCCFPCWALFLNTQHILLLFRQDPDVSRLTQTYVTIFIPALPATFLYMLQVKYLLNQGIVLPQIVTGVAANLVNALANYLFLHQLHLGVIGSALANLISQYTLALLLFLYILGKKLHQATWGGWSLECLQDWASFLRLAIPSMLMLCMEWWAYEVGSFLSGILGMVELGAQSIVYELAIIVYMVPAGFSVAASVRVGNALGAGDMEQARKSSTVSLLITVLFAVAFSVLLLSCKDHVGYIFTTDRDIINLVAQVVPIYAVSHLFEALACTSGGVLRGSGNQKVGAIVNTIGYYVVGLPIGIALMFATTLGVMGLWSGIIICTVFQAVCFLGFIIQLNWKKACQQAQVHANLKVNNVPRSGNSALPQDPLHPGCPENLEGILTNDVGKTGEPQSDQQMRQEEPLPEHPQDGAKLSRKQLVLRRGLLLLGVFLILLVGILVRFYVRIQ
Experimental: as §1
(§2) Experiments with putative biomarkers in HEK-OCT2 or HEK-MATE1 cells were performed with 6 independent biological replicates, whereas all other experiments involving HEK, MDCK, or Caco-2 cells were performed with 4 independent biological replicates. Pairwise comparisons were analyzed for statistical significance with two-tailed unpaired Student’s t test and multiple comparisons by one-way ANOVA with subsequent Tukey-Kramer multiple comparison test by using GraphPad Prism 10.0.2 (GraphPad Software). A value of P < .05 was considered as statistically significant. Km and Vmax values were determined with Michaelis-Menten enzyme kinetics curve fit using GraphPad Prism 10.0.2.

[4] = molecular target: T4, human OCT2 (Homo sapiens, UniProt O15244); test: Concentration-dependent transport in HEK-OCT2 cells (Km, Vmax); conditions: concentrations up to 2000 μM; Km not calculable
T4 sequence (O15244 1-555): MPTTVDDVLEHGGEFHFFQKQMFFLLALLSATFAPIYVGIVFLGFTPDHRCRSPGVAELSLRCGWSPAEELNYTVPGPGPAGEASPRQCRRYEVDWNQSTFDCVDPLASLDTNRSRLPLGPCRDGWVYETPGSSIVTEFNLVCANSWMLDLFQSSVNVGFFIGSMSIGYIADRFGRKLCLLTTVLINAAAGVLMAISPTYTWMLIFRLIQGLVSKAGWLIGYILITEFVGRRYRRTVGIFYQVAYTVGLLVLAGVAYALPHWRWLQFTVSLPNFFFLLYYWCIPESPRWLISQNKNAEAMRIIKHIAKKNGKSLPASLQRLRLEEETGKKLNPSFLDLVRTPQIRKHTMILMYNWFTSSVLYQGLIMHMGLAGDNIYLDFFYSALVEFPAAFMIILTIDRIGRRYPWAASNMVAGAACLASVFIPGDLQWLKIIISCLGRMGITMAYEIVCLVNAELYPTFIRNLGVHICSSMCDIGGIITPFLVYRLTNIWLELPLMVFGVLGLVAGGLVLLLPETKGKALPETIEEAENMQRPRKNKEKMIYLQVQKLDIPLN
Experimental: as §1, §2

[5] = test system: OCT1; conditions: read-out: Km for OCT1; cited from earlier work
[6] = test system: OCT2; conditions: read-out: Km value for OCT2; ref Ma et al 17; cited from earlier work

Uptake ratio in HEK-OAT3 cells compared to HEK-VC cells ([1]; 10 μM substrate, 5 minutes) | Uptake ratio for OAT3 (HEK-OAT3 vs HEK-VC) ([1]; 5 minutes) | Uptake ratio in HEK-OAT3 cells compared to HEK-VC cells ([1]; 100 μM substrate, 5 minutes) | SMILES | In Vitro OAT3 (substrate class) [1] | In Vitro OATP1B3 (substrate class) [2] | Vmax for MATE1-mediated uptake [3] | Km at 5 min [3] | Saturation of net uptake in HEK-OCT2 cells [4] | Km [5] | Km [6]
 |  |  | C[N+](C)(C)CCCCC(=O)[O-] [5-Amino valeric acid betaine, 5-amino valeric acid betaine] | - | 0 (significant uptake in HEK cells, but less than 300% of respective control cells or significant reduction of transcellular transport in Caco-2 cells, but reduction not below 50% of respective control without valspodar) |  |  |  |  | 
 |  |  | Cn1cnc(CCN)c1 [1-Methylhistamine, 1-methylhistamine] | - | - | 441.4 ± 50.5 pmol*mg protein^-1*min^-1 | 307 ± 88.1 µM | did not result in a saturation; also recorded: not saturable |  | 
230% | above 2 fold |  | NCCc1ccc(O)cc1 [Tyramine, tyramine] | 0 (significant uptake in HEK cells, but less than 300% of respective control cells or significant reduction of transcellular transport in Caco-2 cells, but reduction not below 50% of respective control without valspodar) | - |  |  |  |  | 
 |  | 186% | NCCc1c[nH]c2ccc(O)cc12 [Serotonin, serotonin] | 0 (significant uptake in HEK cells, but less than 300% of respective control cells or significant reduction of transcellular transport in Caco-2 cells, but reduction not below 50% of respective control without valspodar) | - | 154.3 ± 7.3 pmol*mg protein^-1*min^-1 | 52.7 ± 10.9 µM |  | 197 ± 42 µM | 539 µM
